Test results: EP3072956A1, “Selective culture medium for polymyxin-resistant, gram-negative bacteria” (priority 2015, dated 2016)

Legend:
Assay in all cases: MIC determination by broth microdilution (MHB-CA, CLSI)
Assay type in all cases: cell-based
P. vulgaris = conditions: strain Pvul
Method: (§1) Determination of MIC values were performed by broth microdilution in Cation-Adjusted Mueller-Hinton broth (MHB-CA) according to the CLSI guidelines (Clinical and Laboratory Standards Institute). Polymyxin B and colistin (Sigma-Aldrich, Saint-Louis) were tested with or without Tween 80 over a range dilution from 0.12 to 128 µg/ml. The surfactant Tween 80, at a final concentration of 0.002%, prevents the binding of polymyxins to multi-array plastic panel. Actually, the use of Tween for determination of MIC of polymyxins is still debatable. MHB-CA broth and 5.10^5 CFU/ml of each tested strain were distributed in each well. Following the EUCAST breakpoints, strains were characterized as susceptible or resistant to polymyxins.

P. aeruginosa = tested on: P. aeruginosa
Method: as §1

E. cloacae = tested on: E. cloacae
Method: as §1

B. cepacia = conditions: strain Bcep
Method: as §1

M. morganii = conditions: strain Mmor
Method: as §1

P. mirabilis = conditions: strain Pmir
Method: as §1

E. coli = tested on: E. coli
Method: as §1

C. freundii = tested on: C. freundii
Method: as §1

E. aerogenes = conditions: strain 36F8
Method: as §1

A. baumannii = tested on: A. baumannii
Method: as §1

P. stuartii = conditions: strain Pstu
Method: as §1

S. marcescens = conditions: strain Smar
Method: as §1

K. pneumoniae = tested on: K. pneumoniae
Method: as §1

K. oxytoca = conditions: strain C24
Method: as §1

colistin
MIC (P. vulgaris; With Tween80): >128 mg/L | MIC (P. vulgaris; Without Tween80): >128 mg/L | MIC (P. aeruginosa; strain 38J8, With Tween80): 0.5 mg/L | MIC (P. aeruginosa; strain 38J8, Without Tween80): 2 mg/L | MIC (P. aeruginosa; strain ATCC 27853, With Tween80): 0.12 mg/L | MIC (P. aeruginosa; strain ATCC 27853, Without Tween80): 0.5 mg/L | MIC (P. aeruginosa; strain C111, With Tween80): 0.12 mg/L | MIC (P. aeruginosa; strain C111, Without Tween80): 1 mg/L | MIC (P. aeruginosa; strain C131, With Tween80): 0.25 mg/L | MIC (P. aeruginosa; strain C131, Without Tween80): 1 mg/L | MIC (P. aeruginosa; strain C133, With Tween80): 0.5 mg/L | MIC (P. aeruginosa; strain C133, Without Tween80): 2 mg/L | MIC (E. cloacae; strain 38A10, With Tween80): 0.12 mg/L | MIC (E. cloacae; strain 38A10, Without Tween80): 0.12 mg/L | MIC (E. cloacae; strain C28, With Tween80): 32 mg/L | MIC (E. cloacae; strain C28, Without Tween80): 32 mg/L | MIC (E. cloacae; strain C129, With Tween80): 0.12 mg/L | MIC (E. cloacae; strain C129, Without Tween80): 0.12 mg/L | MIC (E. cloacae; strain C144, With Tween80): 0.12 mg/L | MIC (E. cloacae; strain C144, Without Tween80): 0.12 mg/L | MIC (E. cloacae; strain HM, With Tween80): >128 mg/L | MIC (E. cloacae; strain HM, Without Tween80): >128 mg/L | MIC (B. cepacia; With Tween80): >128 mg/L | MIC (B. cepacia; Without Tween80): >128 mg/L | MIC (M. morganii; With Tween80): >128 mg/L | MIC (M. morganii; Without Tween80): >128 mg/L | MIC (P. mirabilis; With Tween80): >128 mg/L | MIC (P. mirabilis; Without Tween80): >128 mg/L | MIC (E. coli; strain 36A6, With Tween80): 0.12 mg/L | MIC (E. coli; strain 36A6, Without Tween80): 0.12 mg/L | MIC (E. coli; strain 36D7, With Tween80): 0.12 mg/L | MIC (E. coli; strain 36D7, Without Tween80): 0.25 mg/L | MIC (E. coli; strain 38D6, With Tween80): 0.12 mg/L | MIC (E. coli; strain 38D6, Without Tween80): 0.25 mg/L | MIC (E. coli; strain 27563, With Tween80): 8 mg/L | MIC (E. coli; strain 27563, Without Tween80): 16 mg/L | MIC (E. coli; strain 27837, With Tween80): 8 mg/L | MIC (E. coli; strain 27837, Without Tween80): 16 mg/L | MIC (E. coli; strain 27850, With Tween80): 8 mg/L | MIC (E. coli; strain 27850, Without Tween80): 16 mg/L | MIC (E. coli; strain 27852, With Tween80): 8 mg/L | MIC (E. coli; strain 27852, Without Tween80): 8 mg/L | MIC (E. coli; strain 28509, With Tween80): 4 mg/L | MIC (E. coli; strain 28509, Without Tween80): 4 mg/L | MIC (E. coli; strain 30742, With Tween80): 4 mg/L | MIC (E. coli; strain 30742, Without Tween80): 8 mg/L | MIC (E. coli; strain ATCC 25922, With Tween80): 0.12 mg/L | MIC (E. coli; strain ATCC 25922, Without Tween80): 0.25 mg/L | MIC (E. coli; strain C140, With Tween80): 0.12 mg/L | MIC (E. coli; strain C140, Without Tween80): 0.12 mg/L | MIC (E. coli; strain Eco OmpC-OmpF-, With Tween80): 0.12 mg/L | MIC (E. coli; strain Eco OmpC-OmpF-, Without Tween80): 0.12 mg/L | MIC (C. freundii; strain 38B2, With Tween80): 0.12 mg/L | MIC (C. freundii; strain 38B2, Without Tween80): 0.12 mg/L | MIC (C. freundii; strain C136, With Tween80): 0.12 mg/L | MIC (C. freundii; strain C136, Without Tween80): 0.25 mg/L | MIC (E. aerogenes; With Tween80): 0.12 mg/L | MIC (E. aerogenes; Without Tween80): 0.12 mg/L | MIC (A. baumannii; strain 38B9, With Tween80): 0.25 mg/L | MIC (A. baumannii; strain 38B9, Without Tween80): 0.5 mg/L | MIC (A. baumannii; strain Aba6, With Tween80): 128 mg/L | MIC (A. baumannii; strain Aba6, Without Tween80): 128 mg/L | MIC (A. baumannii; strain C105, With Tween80): 0.12 mg/L | MIC (A. baumannii; strain C105, Without Tween80): 0.5 mg/L | MIC (P. stuartii; With Tween80): >128 mg/L | MIC (P. stuartii; Without Tween80): >128 mg/L | MIC (S. marcescens; With Tween80): >128 mg/L | MIC (S. marcescens; Without Tween80): >128 mg/L | MIC (K. pneumoniae; strain 12E2, With Tween80): 64 mg/L | MIC (K. pneumoniae; strain 12E2, Without Tween80): 64 mg/L | MIC (K. pneumoniae; strain 13G2, With Tween80): 32 mg/L | MIC (K. pneumoniae; strain 13G2, Without Tween80): 64 mg/L | MIC (K. pneumoniae; strain 18J1, With Tween80): 32 mg/L | MIC (K. pneumoniae; strain 18J1, Without Tween80): 32 mg/L | MIC (K. pneumoniae; strain 36A4, With Tween80): 0.12 mg/L | MIC (K. pneumoniae; strain 36A4, Without Tween80): 0.12 mg/L | MIC (K. pneumoniae; strain 36A5, With Tween80): 0.12 mg/L | MIC (K. pneumoniae; strain 36A5, Without Tween80): 0.12 mg/L | MIC (K. pneumoniae; strain 36A7, With Tween80): 0.12 mg/L | MIC (K. pneumoniae; strain 36A7, Without Tween80): 0.25 mg/L | MIC (K. pneumoniae; strain 38B7, With Tween80): 0.12 mg/L | MIC (K. pneumoniae; strain 38B7, Without Tween80): 0.5 mg/L | MIC (K. pneumoniae; strain 75b, With Tween80): 128 mg/L | MIC (K. pneumoniae; strain 75b, Without Tween80): 128 mg/L | MIC (K. pneumoniae; strain 1118, With Tween80): 64 mg/L | MIC (K. pneumoniae; strain 1118, Without Tween80): 64 mg/L | MIC (K. pneumoniae; strain 1515, With Tween80): 32 mg/L | MIC (K. pneumoniae; strain 1515, Without Tween80): 64 mg/L | MIC (K. pneumoniae; strain AF1b, With Tween80): 16 mg/L | MIC (K. pneumoniae; strain AF1b, Without Tween80): 16 mg/L | MIC (K. pneumoniae; strain BICb, With Tween80): >128 mg/L | MIC (K. pneumoniae; strain BICb, Without Tween80): >128 mg/L | MIC (K. pneumoniae; strain C1, With Tween80): 128 mg/L | MIC (K. pneumoniae; strain C1, Without Tween80): 128 mg/L | MIC (K. pneumoniae; strain C3, With Tween80): 32 mg/L | MIC (K. pneumoniae; strain C3, Without Tween80): 32 mg/L | MIC (K. pneumoniae; strain C7, With Tween80): >128 mg/L | MIC (K. pneumoniae; strain C7, Without Tween80): >128 mg/L | MIC (K. pneumoniae; strain C11, With Tween80): 128 mg/L | MIC (K. pneumoniae; strain C11, Without Tween80): 64 mg/L | MIC (K. pneumoniae; strain C12, With Tween80): 64 mg/L | MIC (K. pneumoniae; strain C12, Without Tween80): 64 mg/L | MIC (K. pneumoniae; strain C16, With Tween80): 64 mg/L | MIC (K. pneumoniae; strain C16, Without Tween80): 64 mg/L | MIC (K. pneumoniae; strain C21, With Tween80): 128 mg/L | MIC (K. pneumoniae; strain C21, Without Tween80): 128 mg/L | MIC (K. pneumoniae; strain C22, With Tween80): 64 mg/L | MIC (K. pneumoniae; strain C22, Without Tween80): 32 mg/L | MIC (K. pneumoniae; strain C25, With Tween80): 32 mg/L | MIC (K. pneumoniae; strain C25, Without Tween80): 64 mg/L | MIC (K. pneumoniae; strain C26, With Tween80): 128 mg/L | MIC (K. pneumoniae; strain C26, Without Tween80): 128 mg/L | MIC (K. pneumoniae; strain C27, With Tween80): >128 mg/L | MIC (K. pneumoniae; strain C27, Without Tween80): >128 mg/L | MIC (K. pneumoniae; strain C112, With Tween80): 0.12 mg/L | MIC (K. pneumoniae; strain C112, Without Tween80): 0.5 mg/L | MIC (K. pneumoniae; strain C115, With Tween80): 0.12 mg/L | MIC (K. pneumoniae; strain C115, Without Tween80): 0.12 mg/L | MIC (K. pneumoniae; strain C130, With Tween80): 0.12 mg/L | MIC (K. pneumoniae; strain C130, Without Tween80): 0.5 mg/L | MIC (K. pneumoniae; strain C132, With Tween80): 0.12 mg/L | MIC (K. pneumoniae; strain C132, Without Tween80): 0.12 mg/L | MIC (K. pneumoniae; strain Kp OmpK3 5-OmpK3 6-, With Tween80): 0.12 mg/L | MIC (K. pneumoniae; strain Kp OmpK3 5-OmpK3 6-, Without Tween80): 0.12 mg/L | MIC (K. pneumoniae; strain Sa, With Tween80): >128 mg/L | MIC (K. pneumoniae; strain Sa, Without Tween80): 128 mg/L | MIC (K. pneumoniae; strain T1b, With Tween80): 128 mg/L | MIC (K. pneumoniae; strain T1b, Without Tween80): 128 mg/L | MIC (K. pneumoniae; strain T4, With Tween80): 64 mg/L | MIC (K. pneumoniae; strain T4, Without Tween80): 64 mg/L | MIC (K. pneumoniae; strain T5, With Tween80): 64 mg/L | MIC (K. pneumoniae; strain T5, Without Tween80): 32 mg/L | MIC (K. oxytoca; With Tween80): 64 mg/L | MIC (K. oxytoca; Without Tween80): 64 mg/L
